The test system of data set [1] is pBCECs. Description: Permeability across primary porcine BCEC monolayer on Transwell inserts (static). The data set is classed as in vitro ADME, Sus scrofa domestica. The following applies: 3 h incubation. As to the method:
The substances of interest were added to the apical side of the membranes, incubated for 3 h at 37 °C, 5% CO2 and 90% relative humidity, and then the samples were collected from the apical and basolateral compartment for measurement.

Data set [2] deals with hiPS-BCECs. Description: Permeability/transport across hiPS-BCEC barrier in microfluidic Quasi Vivo QV600 setup. The following applies: fluidic system; for caffeine concentration, basolateral side: 100 µM caffeine apical.
Experimental: (§6) The microfluidic studies were performed using the commercial Quasi Vivo® QV600 system ([…] ., York, UK). […] On day 10, when the barrier has been established, the membrane containing the blood-brain barrier was inserted into the QV 600 chamber. The apical channel was filled with enriched endothelial medium (heSFM with 5% […] added to the basolateral channel. A fluidic flow with a flow rate of 200 μL min^-1 was established and experiments were performed for up to 4 days. […] For comparison, samples in the static setting were collected at the same time points with a separate insert for each time point. […] Standard dilutions of sample media were used for quantification and sample media from cell wells without sodium fluorescence application were used for background subtraction. All measurements were performed in duplex at least. […] Samples were collected from both the apical and basolateral circuits, filtered using Whatman Mini-UniPrepTM filters (VWR International, […] , Germany) and caffeine concentrations measured using HPLC. […] At a flow rate of 0.4 mL min^-1, 5 μL of sample was injected and separated at a column temperature of 60 °C.
The subject of data set [3] is hiPS-BCECs. Description: Permeability/transport across hiPS-derived BCEC monolayer on membrane inserts (static). The following applies: for permeability coefficient: hiPS-BCECs; for caffeine concentration, basolateral side / caffeine concentration, apical side: Figure 8B (static system), 100 µM caffeine apical. As to the method:
(§1) The stem cell line UKKi011-A was differentiated according to the protocol published by Stebbins et al. with slight modifications (Figure 2B). Cells were seeded at a density of 5 × 10^3 cells cm^−2 on Matrigel-coated (Corning, Amsterdam, The Netherlands) 6-well plates and cultivated for 3 days in mTeSR1 medium (Stem Cell Technologies, Vancouver, BC, Canada) before initiating the differentiation. On day 0, the mTeSR1 medium was switched to unconditioned medium (DMEM/F12 with 20% knock-out serum replacement, 1% non-essential amino acids, 0.5% GlutaMAX and […] 2-mercaptoethanol) and medium was exchanged daily for 5 days. On day 6, the medium was changed to endothelial medium with growth factors (heSFM with 1% platelet-poor plasma-derived human serum (PDS; SigmaAldrich, Taufkirchen, Germany), 20 ng mL^−1 bFGF (R&D Systems, Minneapolis, MN, USA) and 10 µM retinoic acid (SigmaAldrich, Taufkirchen, Germany)). On day 8, cells were dissociated with Accutase for 25 min at 37 °C and seeded at a density of 1 × 10^6 cells cm^−2 in endothelial medium with growth factors. Cells were seeded onto membrane inserts with 3.0 µm pore size (VWR International, Darmstadt, Germany) and coated with 400 µg mL^−1 human collagen IV (SigmaAldrich, Taufkirchen, Germany) and 100 µg mL^−1 fibronectin (SigmaAldrich, Taufkirchen, Germany) in 0.05% acetic acid. The medium was changed 24 h after seeding to either endothelial medium without growth factors (heSFM with 1% PDS) or enriched endothelial medium (heSFM with 5% PDS) on the apical side and heSFM on the basolateral side. Experiments were performed on day 10 or 11.
(§2) The substances of interest were added to the apical side of the membranes, incubated for 3 h at 37 °C, 5% CO2 and 90% relative humidity, and then the samples were collected from the apical and basolateral compartment for measurement. In the microfluidic setup, sodium fluorescein and caffeine (SigmaAldrich, Taufkirchen, Germany) were added to the apical channel and samples were collected 4, 24, 48 (only caffeine) and 72 h after application from both fluidic channels.
(§3) Sodium fluorescein was added to a final concentration of 1 µg mL^−1, the samples were transferred to black 96-well plates and fluorescence was measured at an excitation of 485 nm and emission of 535 nm with a Tecan infinite 200 plate reader (Tecan Group Ltd., Männedorf, Switzerland).
(§4) After incubation, the apical and basolateral medium were collected separately, transferred to plastic vials containing 5 mL Ultima Gold scintillation liquid (Perkin Elmer, Waltham, MA, USA) and radioactive decay was measured with a Tri-Carb 2910TR Scintillation counter (Perkin Elmer, Waltham, MA, USA).
(§5) Caffeine was added to a final concentration of 100 µM to the apical circuit. […] Detection was achieved using a Diode-Array-Detector (DAD) at a wavelength of 275 nm.

For data set [4], the system named is co-culture model of human hiPS-BCECs and rat glial cells. More on the design: method as in PMID 31690750. Particulars: literature value ref 24; cited from earlier work.
Data set [5] is described as follows: Permeability/transport across hiPS-BCEC barrier in microfluidic Quasi Vivo QV600 setup. Particulars: human, not told.
Experimental: as §6
Data set [6] can be described thus: Permeability/transport across hiPS-derived BCEC monolayer on membrane inserts (static). The following applies: human. As to the method:
as §1, §2, §3, §4, §5

[7] abbreviates: static, established protocol / equal serum distribution (1% PDS both sides), apical application, 3 h incubation.
Where [8] appears, read: static, serum only in apical medium (5% PDS apical, serum-free basolateral), 3 h incubation.

Consider three molecules from PMC9031459, “Experimental Comparison of Primary and hiPS-Based In Vitro Blood–Brain Barrier Models for Pharmacological Research” (Pharmaceutics, 2022).

Consider `O=C([O-])c1ccccc1-c1c2ccc(=O)cc-2oc2cc([O-])ccc12.[Na+].[Na+]` [sodium fluorescein], for which the permeability coefficient in data set [1] (5% FCS apical, serum-free basolateral) was 0.62 ×10⁻⁶ cm/s; in data set [1] (established protocol (serum-free medium on both sides), apical application), 1.85 ×10⁻⁶ cm/s; in data set [2] (hiPS-BCECs, flow 200 µL min^−1, 5% PDS apical, serum-free basolateral), 2.75 × 10^–6 ± 1.61 × 10^–6 cm s^−1; in data set [3] (static system compared with fluidic, 5% PDS apical, serum-free basolateral), 0.81 × 10^–6 ± 0.82 × 10^–7 cm s^−1; in data set [3] (setting [7]), 1.41e-06 cm/s; in data set [3] (setting [8]), 8e-07 cm/s.
As usually defined, the Papp is the rate of passage across a membrane or cell layer, normalised by area and donor concentration. On to `Cn1c(=O)c2c(ncn2C)n(C)c1=O` [caffeine], for which, in data set [4], the “permeability coefficient, literature value” is recorded as 3.1 × 10^–5 cm s^−1. The Papp at 100 µM in data set [5] was 30.4 ×10⁻⁶ cm/s; in data set [6], 9 ×10⁻⁶ cm/s. The “caffeine concentration, basolateral side” value in data set [2] (4 h) is reported as 5.91 ± 3.36 µM; in data set [2] (24 h) it was 14.85 ± 3.50 µM; in data set [2] (48 h), 17.08 ± 4.44 µM; in data set [2] (72 h) it was 17.72 ± 3.34 µM; in data set [3] (4 h), 24.46 ± 1.90 µM; in data set [3] (24 h), 36.19 ± 3.18 µM. Moreover, in data set [3] (48 h), the “caffeine concentration, basolateral side” value is recorded as 37.97 ± 2.88 µM. Further, the results for the “caffeine concentration, apical side” value in data set [3] (24 h) and in data set [3] (48 h) were 36.30 ± 2.71 µM and 37.74 ± 3.02 µM, respectively.
Take inulin [[14C]-inulin]: the figures for the permeability coefficient in data set [3] (setting [7]) and in data set [3] (setting [8]) were 3.19e-06 cm/s and 8.9e-07 cm/s, respectively.
